Assay results reported in paper PMC4203866, “Identification of plant-derived natural products as potential inhibitors of the Mycobacterium tuberculosis proteasome” (BMC Complementary and Alternative Medicine, 2014).
Structures can show the parent of a compound that is named as a salt.

Target: T1, Mtb proteasome (Mycobacterium tuberculosis, UniProt P9WHT9)
T1 construct: Proteasome activity of the supernatants was assessed; endogenous in cells; host or cells: Mycobacterium tuberculosis H37Ra (crude lysate supernatant)
Assay: biochemical
Conditions: not given

T1 sequence (P9WHT9 58-291): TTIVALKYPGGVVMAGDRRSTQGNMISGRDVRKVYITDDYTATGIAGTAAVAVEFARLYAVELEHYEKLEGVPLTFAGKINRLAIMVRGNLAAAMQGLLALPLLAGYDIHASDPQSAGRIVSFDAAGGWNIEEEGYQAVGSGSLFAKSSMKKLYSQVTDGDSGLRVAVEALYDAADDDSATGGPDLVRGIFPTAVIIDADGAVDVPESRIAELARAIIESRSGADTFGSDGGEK
T1 sequence (P9WHU1 whole entry partner): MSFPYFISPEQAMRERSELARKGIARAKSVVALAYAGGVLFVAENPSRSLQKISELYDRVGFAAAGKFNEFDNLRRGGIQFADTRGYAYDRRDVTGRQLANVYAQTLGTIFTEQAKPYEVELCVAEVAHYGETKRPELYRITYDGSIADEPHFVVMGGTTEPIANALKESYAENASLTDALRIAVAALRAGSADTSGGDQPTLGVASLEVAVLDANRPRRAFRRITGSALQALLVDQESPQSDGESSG

Row | Compound | IA: inhibitory activity of Mtb proteasome [%] | IC50 [µM]
1 | COc1c(O[C@@H]2O[C@H](C(=O)O)[C@@H](O)[C@H](O)[C@H]2O)cc(O)c2c(=O)cc(-c3ccccc3)oc12 [wogonoside] | 59.01 | –
2 | CC(C)(O)[C@H]1CC[C@@](C)([C@H]2[C@@H](O)C[C@@]3(C)[C@@H]4C[C@H](O[C@@H]5O[C@H](CO)[C@@H](O)[C@H](O)[C@H]5O)[C@H]5C(C)(C)[C@@H](O[C@@H]6OC[C@@H](O)[C@H](O)[C@H]6O)CC[C@@]56C[C@@]46CC[C@]23C)O1 [astragaloside A] | 23.59 | –
3 | COc1ccc2cc1Oc1ccc(cc1)C[C@H]1c3cc(c(OC)cc3CCN1C)Oc1c(OC)c(OC)cc3c1[C@H](C2)N(C)CC3 [hanfangchin A] | 0.00 | –
4 | dipsacoside | 0.00 | –
5 | COc1c(O)cc2oc3cc(O)c(CC=C(C)C)c(O)c3c(=O)c2c1CC=C(C)C [alpha mangostin] | 64.16 | –
6 | Cc1cc(O)c2c(c1)C(=O)c1cc(O)cc(O)c1C2=O [emodin] | – | 81.1
7 | tubeimoside A | 0.00 | –
8 | O=c1cc(-c2ccccc2)oc2cc(O)c(O)c(O)c12 [baicalein] | – | 45.7
9 | C=C1CC[C@@H]2[C@](C)(CO)[C@H](O)CC[C@@]2(C)[C@@H]1/C=C/C1=CCOC1=O [dehydroandrographolide] | 32.67 | –
10 | COc1cc2c(c(OC)c1OC)-c1c(cc(OC)c(OC)c1OC)C[C@H](C)[C@H](C)C2 [deoxyschizandrin] | 23.86 | –
11 | COc1ccc(-c2oc3c(CC=C(C)C)c(O[C@@H]4O[C@H](CO)[C@@H](O)[C@H](O)[C@H]4O)cc(O)c3c(=O)c2O[C@@H]2O[C@@H](C)[C@H](O)[C@@H](O)[C@H]2O)cc1 [icarrin, icariin] | – | 88.7
12 | madecassoside | 0.00 | –
13 | evodine | 31.77 | –
14 | O=C(O)[C@H]1O[C@@H](Oc2cc3oc(-c4ccccc4)cc(=O)c3c(O)c2O)[C@H](O)[C@@H](O)[C@@H]1O [baicalin] | – | 83.5
15 | C=C[C@H]1[C@H](O[C@@H]2O[C@H](CO)[C@@H](O)[C@H](O)[C@H]2O)OC=C2C(=O)OCC[C@]21O [swertiamain] | 14.39 | –
16 | martin hydrochloride | 43.66 | –
17 | silmyarin | 0.00 | –
18 | C=C(C)[C@@H]1CC[C@]2(CO)CC[C@]3(C)[C@H](CC[C@@H]4[C@@]5(C)CC[C@H](O)C(C)(C)[C@@H]5CC[C@]43C)[C@@H]12 [betulinol] | 6.52 | –
19 | COc1cc(C)c(C(=O)Oc2cc(C)c(C(=O)O)c(O)c2C)c(OC)c1C [diffractic acid] | 0.00 | –
20 | asiaticoside | 0.00 | –

Same assay, conditions: 0.5 h, read-out: IA: inhibitory activity of Mtb proteasome

Row | Compound | inhibition at 200 µM [%]
21 | C[C@H]1CC[C@@]2(OC1)O[C@H]1C[C@H]3[C@@H]4CC[C@@H]5C[C@@H](O)CC[C@]5(C)[C@H]4CC[C@]3(C)[C@H]1[C@@H]2C [sarsasapogenin] | 0
22 | O=c1cc(-c2ccc(O)c(O)c2)oc2cc(O)cc(O)c12 [luteolin] | 0
23 | C=CCc1ccc(O)c(-c2cc(CC=C)ccc2O)c1 [magnolol] | 0
24 | N#C[C@H](O[C@@H]1O[C@H](CO[C@@H]2O[C@H](CO)[C@@H](O)[C@H](O)[C@H]2O)[C@@H](O)[C@H](O)[C@H]1O)c1ccccc1 [amygdalin] | 1.87
25 | O=C1CCC[C@@H]2[C@H]3CCCN4CCC[C@@H](CN12)[C@@H]34 [matrine] | 23.5
26 | Cc1cc(O)c2c(c1)C(=O)c1cc(O)cc(O)c1C2=O [emodin] | > 65
27 | COc1cc(C[C@H]2C(=O)OC[C@@H]2Cc2ccc(OC)c(OC)c2)ccc1O [arctigenin] | 27.1
28 | C=C1C(=O)O[C@@H]2/C=C(\C)CC/C=C(\C)CC[C@@H]12 [costunolide] | 41.8
29 | O=c1cc(-c2ccccc2)oc2cc(O)c(O)c(O)c12 [baicalein] | > 65
30 | C[C@@H]1CC[C@@]2(OC1)O[C@H]1C[C@H]3[C@@H]4CC=C5C[C@@H](O)CC[C@]5(C)[C@H]4CC[C@]3(C)[C@H]1[C@@H]2C [diosgenin] | 0
31 | OC[C@H]1O[C@@H](OCCc2ccc(O)cc2)[C@H](O)[C@@H](O)[C@@H]1O [salidroside] | 34
32 | O=C(O)C1=C[C@@H](O)[C@@H](O)[C@H](O)C1 [shikimicacid] | 0
33 | CC(C)(C)[C@]1(O)CC2OC(=O)CC23C(=O)OC2OC(=O)[C@H](O)C231 (stereo partly shown) [bilobalide] | 18.6
34 | C[C@H]1[C@H](OC(=O)CCC(=O)O)O[C@@H]2O[C@@]3(C)CC[C@H]4[C@H](C)CC[C@@H]1[C@@]24OO3 [artesunate, reference compound] | 13.8
35 | OC[C@H]1O[C@@H](Oc2cc(O)cc(/C=C/c3ccc(O)cc3)c2)[C@H](O)[C@@H](O)[C@@H]1O [polydatin] | 0
36 | COc1ccc(C(C)=O)c(O)c1 [paeonol] | 0
37 | COc1ccc(-c2oc3c(CC=C(C)C)c(O[C@@H]4O[C@H](CO)[C@@H](O)[C@H](O)[C@H]4O)cc(O)c3c(=O)c2O[C@@H]2O[C@@H](C)[C@H](O)[C@@H](O)[C@H]2O)cc1 [icarrin, icariin] | > 65
38 | COc1ccc2cc1Oc1ccc(cc1)C[C@H]1c3c(cc4c(c3Oc3cc5c(cc3OC)CCN(C)[C@@H]5C2)OCO4)CCN1C [cepharanthine] | 0

Row | Compound | inhibition at 200 µM [%]
39 | O=c1ccc2ccccc2o1 [coumarin] | 0
40 | O=C(O)[C@H]1O[C@@H](Oc2cc3oc(-c4ccccc4)cc(=O)c3c(O)c2O)[C@H](O)[C@@H](O)[C@@H]1O [baicalin] | > 65
41 | CC1(C)O[C@H]2CC(=O)OC[C@]23[C@H]2CC[C@@]4(C)[C@H](c5ccoc5)OC(=O)[C@H]5O[C@]54[C@]2(C)C(=O)C[C@@H]13 [limonin] | 1.61
42 | COc1c(O)cc(O)c2c(=O)cc(-c3ccccc3)oc12 [wogonin] | 54
43 | CC1(C)[C@@H](O)CC[C@]2(C)[C@H]3C(=O)C=C4[C@@H]5C[C@@](C)(C(=O)O)CC[C@]5(C)CC[C@@]4(C)[C@]3(C)CC[C@@H]12 [glycyrrhetinic Acid] | 0
44 | C=C1CC[C@H]2C(=C)CC[C@H]3C(=C)C(=O)O[C@@H]3[C@@H]12 [dehydrocostuslactone] | 32.1
45 | O=c1c(-c2ccc(O)cc2)coc2cc(O)cc(O)c12 [genistein] | 45.7
46 | O=c1ccc2ccc(O)cc2o1 [umbelliferone] | 0
47 | CC(=O)O[C@H]1C(=O)[C@@]2(C)[C@H]([C@H](OC(=O)c3ccccc3)[C@]3(O)C[C@H](OC(=O)[C@H](O)[C@@H](NC(=O)c4ccccc4)c4ccccc4)C(C)=C1C3(C)C)[C@]1(OC(C)=O)CO[C@@H]1C[C@@H]2O [paclitaxel, reference compound] | 0
48 | C[C@@H]1O[C@@H](OC[C@H]2O[C@@H](Oc3c(-c4ccc(O)c(O)c4)oc4cc(O)cc(O)c4c3=O)[C@H](O)[C@@H](O)[C@@H]2O)[C@H](O)[C@H](O)[C@H]1O [rutin] | 0
49 | O=c1c(-c2ccc(O)cc2)coc2cc(O)ccc12 [daidzein] | 0
50 | O=C1c2cccc(O)c2C(=O)c2c(O)cccc21 [1,8-dihydroxyanthraquinone] | 36.3
51 | O=C1Nc2ccccc2/C1=C1/Nc2ccccc2C1=O [indirubin] | 46
52 | O=C1c2cccc(O)c2C(=O)c2c(O)cc(CO)cc21 [aloe-emodin] | 34.3
53 | O=c1c(O)c(-c2ccc(O)c(O)c2)oc2cc(O)cc(O)c12 [quercetin] | > 65
54 | O[C@H]1[C@H]2c3cc4c(cc3CN3CCC(=C[C@@H]1O)[C@H]23)OCO4 [lycorine hydrochloride] | 0
55 | COc1c(O)cc2c(c1O)[C@@H]1O[C@H](CO)[C@@H](O)[C@H](O)[C@H]1OC2=O [bergenin] | 3.67
